Activity calls are given as the source filed them. The rule behind the calls is not given here.
Assays:
Mus musculus [1] = species: Mus musculus; assay: Percent inhibition of nitric oxide generation in both lipopolysaccharide and interferon gamma induced mouse macrophage RAW 264.7 cells; format: functional
Mus musculus [2] = species: Mus musculus; assay: Compound was tested for the inhibitory activity against mouse macrophage RAW 264.7 cells at the concentration of 50 uM; Inactive; format: functional, cell-based
Mus musculus [3] = species: Mus musculus; assay: Compound was tested for cytotoxicity against mouse macrophage RAW 264.7 cells using MTT assay; Inactive; format: functional, cell-based
Mus musculus [4] = species: Mus musculus; assay: Percent inhibition of nitric oxide generation in both lipopolysaccharide and interferon gamma induced mouse macrophage RAW 264.7 cells at the concentration of 10 uM.; format: functional

| Structure (SMILES) | Activity (Mus musculus [2]) | Activity (Mus musculus [3]) | also measured |
| --- | --- | --- | --- |
| C=C(COC(=O)CC(C)C)C1OC1c1c(OC)ccc2ccc(=O)oc12 (stereo not drawn) | – | – | Inhibition (Mus musculus [1]): 86.1% |
| CC(C)=CCC/C(C)=C/CC/C(C)=C/COc1ccc2ccc(=O)oc2c1 | inactive | – | – |
| O=c1ccc2c(O)cc(O)cc2o1 | – | inactive | – |
| C=C(C)[C@H]1O[C@@H]1c1c(OC)ccc2ccc(=O)oc12 | – | inactive | – |
| C=CCc1c(O)ccc2ccc(=O)oc12 | – | inactive | – |
| C=CC(C)(C)Oc1c2c(c(C(C)(C)C=C)c3oc(=O)ccc13)OC(C)(C)C=C2 | inactive | – | inhibition at 10 µM (Mus musculus [4]): 91.2% |
| CC(C)=CCc1c(O)ccc2ccc(=O)oc12 | inactive | – | – |
| C=CC(C)(C)c1c2c(c(O)c3ccc(=O)oc13)C=CC(C)(C)O2 [NORDENTATIN] | inactive | – | inhibition at 10 µM (Mus musculus [4]): 91.2% |
| COc1ccc2ccc(=O)oc2c1C1=C(C)COC1=O | – | inactive | – |
| C=C1COC2Oc3ccc4ccc(=O)oc4c3C12 (stereo not drawn) | – | inactive | – |
| CC(C)(O)[C@@H]1Cc2c(ccc3ccc(=O)oc23)O1 | – | inactive | – |
| CC1(C)OC1COc1c2occc2cc2ccc(=O)oc12 (stereo not drawn) [HERACLENINPRANGENIN] | – | – | Inhibition (Mus musculus [1]): 36.9% |
| C=CCOc1ccc2ccc(=O)oc2c1 | – | inactive | – |
| CC(C)=CCOc1ccc2ccc(=O)oc2c1 | inactive | – | – |
| C=CC(C)(C)c1cc2c(O)c3c(c(C(C)(C)C=C)c2oc1=O)OC(C)(C)C=C3 [CLAUSARIN] | inactive | – | inhibition at 10 µM (Mus musculus [4]): 91.2% |
